How the values were obtained:
[1] = target: T1, human leukocyte elastase (HLE) (Homo sapiens, UniProt P08246); experiment: Human leukocyte elastase (HLE) inhibition assay, Dixon plot; type: biochemical; settings: competitive inhibition conditions, substrate MeOSuc-AAPV-pNA, 0.1 M HEPES pH 7.25, 25° C., read-out: K1 or % Inhibition (Ki), Elastase (HLE)
T1 sequence (P08246 30-247 limits assumed): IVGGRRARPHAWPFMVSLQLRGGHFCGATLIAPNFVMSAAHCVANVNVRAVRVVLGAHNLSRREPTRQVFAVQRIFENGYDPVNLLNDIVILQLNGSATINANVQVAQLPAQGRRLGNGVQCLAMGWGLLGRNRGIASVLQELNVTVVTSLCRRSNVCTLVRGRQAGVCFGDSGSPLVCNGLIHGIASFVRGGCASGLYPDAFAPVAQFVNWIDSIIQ
Description: Screening of compounds for protease activity is known in the art. The human leukocyte elastase (HLE), cathepsin G (Cat G) and proteinase 3 (PR3) assays have each been described in detail; see, Groutas et al. Biochemistry 36:4739 (1997). Chymase assay has also been previously reported; see, Schechter, et al., J. Biol. Chem. 268:23626 (1993).
The substrates and buffers used in the assay inhibition studies with human leukocyte elastase (HLE), cathepsin G (Cat G), proteinase 3 (PR3) (Groutas, W. C., et al., Biochemistry 36:4739 (1997) and chymase (Groutas, W. C. et al., Bioorg. Med. Chem. Lett. 9:2199 (1999) were as follows: HLE, MeOSuc-AAPV-pNA, 0.1 M HEPES buffer, pH, 7.25 in 1-5% DMSO; Cat G, Suc-AAPF-pNA, 0.1 M HEPES buffer, pH 7.5; PR3, Boc-L-Ala p-mitrophenyl ester, 0.1 M phosphate buffer, pH 6.5; chymase, Suc-AAPF-pNA, 0.45 Tris buffer, 1.8 M Na Cl, pH 8.03 and 2% DMSO. All assays were carried out at 25° C. and for all enzymes the absorbance was monitored at 410 nm, except PR 3 (348 nm).
The inhibitory activity of compound 15 toward HLE was determined under competitive inhibition conditions. (Dixon, M. Biochem. J. 20 55:70-71 (1953)). Human leukocyte elastase (HLE assay has been described in detail; see, Groutas et al. Biochemistry 36:4739 (1997).

Thermolysin = target: T2, Thermolysin (Bacillus thermoproteolyticus, UniProt P00800); experiment: Thermolysin inhibition assay with N-[3-[2-Furyl]acryloyl]-Gly-L-Leu-NH2 as substrate; type: biochemical; settings: 0.1 M Tris-HCl pH 7.2, 25° C.
T2 sequence (P00800 233-548): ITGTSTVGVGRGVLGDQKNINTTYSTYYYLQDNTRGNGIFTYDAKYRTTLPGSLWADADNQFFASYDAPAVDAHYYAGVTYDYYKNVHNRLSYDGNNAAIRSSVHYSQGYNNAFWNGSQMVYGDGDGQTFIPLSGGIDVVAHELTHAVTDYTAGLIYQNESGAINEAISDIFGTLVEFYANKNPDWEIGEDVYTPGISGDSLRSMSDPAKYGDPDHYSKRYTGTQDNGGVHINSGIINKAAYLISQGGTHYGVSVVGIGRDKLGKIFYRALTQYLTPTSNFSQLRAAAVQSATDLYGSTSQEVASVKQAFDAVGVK
Experimental: Thermolysin activity with or without inhibitor was measured using N-[3-[2-Furyl]acryloyl]-Gly-L-Leu-NH2 as substrate (Walsh, K. A. et al. Methods Enzymol.34:435 (1974; Nishino, N. et al. Biochemistry 17:2846 (1978). The substrate solution in 0.1 M Tris-HCl buffer (pH 7.2) containing 2% DMF was added to thermolysin in 0.1 M Tris-HCl, ph 7.2, containing 10 mM CaCl2 and the decrease in absorbance at 345 nm was monitored using a Hewlett-Packard diode array UV/VIS spectrophotometer at 25° C. Percent inhibition and/or K1 values were determined from Dixon plots (Dixon, M. Biochem, J. 55:70 (1953) at two different substrate concentrations.
The inhibitory activity of compound 20 and 30 toward thermolysin was determined under competitive inhibition conditions. Thermolysin activity with or without inhibitor was measured using N-[3-[2-Furyl]acryloyl]-Gly-L-Leu-NH2 as substrate (Walsh, K. A. et al. Methods Enzymol.34:435 (1974); Nishino, N. et al. Biochemistry 17:2846 (1978)).

## CC(C)CC(C=O)N(Cc1ccccc1)S(=O)(=O)N(C)C (stereo not drawn) [Compound 15, N-benzyl-N-(1-formyl-3-methylbutyl)-N′,N′-dimethylfulfamide]
[1]
  Ki: 21 µM

## CN(C)S(=O)(=O)N(CC(=O)NO)Cc1ccccc1 [Compound 20, N^2-benzyl-N^2-[(dimethylamino)sulfonyl]-N^1-hydroxyglycinabmide]
Thermolysin; competitive inhibition conditions, Dixon plots at two substrate concentrations, read-out: K1 or % Inhibition (Ki), Thermolysin
  Ki: 1.2 µM

## CC(C)C[C@@H](C(=O)NO)N(Cc1ccccc1)S(N)(=O)=O [Compound 40]
Thermolysin; inhibitor concentration not given
  K1 or % Inhibition (% inhibition), Thermolysin: 26% inhibition

Reference: US6495358B1, “Sulfamide and bis-sulfamide amino acid derivatives as inhibitors of proteolytic enzymes” (Wichita State University, priority 2000, dated 2002)
